# Assay results taken from patent publication US5510340A, “Antihypercholesterolemic compounds and related pharmaceutical compositions and methods of use” (SRI International, priority 1992, dated 1996).
# Assays:
# [1] = test system: Cholesterol Biosynthesis in CHO Cells; test: In Vitro Assay for Inhibition of Cholesterol Biosynthesis in CHO Cells; type: cell-based, Chinese Hamster; details: Cricetulus griseus, 14C-acetate incorporation into cholesterol, 16-18 h incubation with compound
# Protocol: Chinese Hamster ovary (CHO) cells were seeded at 1×10^5 cells per 60-mm Petri dish and incubated at 37° C. in F-12 medium supplemented with fetal calf serum (5%). After 24 h, the medium was aspirated and replaced with delipidated calf serum in F-12 medium containing the test compounds. At various concentrations, either ethanol or dimethyl sulfoxide was used to dissolve the test compounds to a final concentration of 0.1% in the cell medium. Controls contained the vehicle alone. After incubation for 16-18 h, ^14 C-acetate (20 μM final concentration) was added and incubation continued for 5.5 h. […] The cells were then scraped off the plates with a rubber policeman into saline (2 mL). An aliquot for protein was taken, and the remainder of the cell suspension was centrifuged at 800×g for 10 min. The supernatant was discarded and the pellet extracted by vortexing 15 s in chloroform:methanol (2 mL of 2:1). […] NaCl (0.4 mL) was added, vortexed, and centrifuged, and the top layer was discarded. A portion of the upper phase mixture of chloroform:methanol:water (0.4 mL of 3:48:47) was added and gently swirled to avoid mixing with the bottom layer. The resultant samples were centrifuged, and the top layer was discarded. The procedure was repeated before methanol was finally added to combine the two layers and the solvent was evaporated. Chloroform (200 μL) was added to the residue and an aliquot (150 μL) taken. To the aliquot was added cholesterol (40 μg in 20 μL), and the samples were concentrated. The lipids were dissolved in chloroform (50 μL) and spotted on silica gel G thin-layer chromatography plates. After development in hexane:ether:acetic acid (80:20:1), the ^14 C-cholesterol spot was located with iodine vapor and scraped into a scintillation vial, and the radioactivity was counted with a scintillation counter.
# [2] = test system: Cholesterol Levels in Plasma of Rats; test: Assay for Lowering Cholesterol Levels in Rats with Oral Administration of Test Compound 15; type: in vivo, Male Sprague-Dawley rats; details: rat plasma, gavage, mean ± S.E.
# Protocol: Male Sprague-Dawley rats weighing 120 to 150 g were used. The animals were placed on a cholesterol-free diet immediately upon arrival and housed in a room with a reverse light cycle. One week after they had adapted to the light cycle, the experiment was begun by gavaging the animals three times daily with various amounts of test compound 13 suspended in 1.0 mL of saline. The control group received 1.0 mL of saline alone. On the seventh day of the experiment, sodium 1-^14 C! acetate (20 μCi/rat) was injected intraperitoneally 30 min after the oral administration (gavage) of test compounds and 2 h before the mid-dark point in the diurnal cycle; 4 h after the ^14 C-acetate injection, the animals were killed and blood samples were collected after decapitation. Plasma was obtained by centrifuging blood in an EDTA-treated centrifuge tube at 3000 rpm for 10 min. Cholesterol synthesis was measured by determining the level of ^14 C-labeled nonsaponifiable lipid present in 1.0 mL of plasma; 1.0 mL of plasma was first mixed with 1.0 mL of saline, followed by 5.0 mL of 10% KOH in absolute ethanol. Samples were saponified at 75° C. for 1 h. After cooling, 44,000 dpm, 0.5 nmol of 1,2-^3 H! cholesterol was added to each sample as an internal standard for calculating recovery through the extraction procedure. Samples were extracted once with 5 mL of petroleum ether, and the organic phase was backwashed with 5 mL of saline. The extracts were dried on a nitrogen evaporator, and the residue was reconstituted into 0.5 mL of CHCl3 -MeOH (2:1). The 0.5-mL reconstituted samples were transferred into counting vials containing 2 mL of ethanol, and both ^3 H and ^14 C were counted in 10 mL of scintillation fluid. The ^3 H-cholesterol internal standard recovery value from each sample was used to correct each sample to 100% recovery of ^14 C-cholesterol. The total cholesterol level and HDL in each plasma sample was also measured. The comparison between test groups and the control group was evaluated for both cholesterol levels and ^14 C-acetate incorporation.
# (c.) Assay for Lowering Cholesterol Levels in Rats with Oral Administration of Test Compound 15:
# The experiment was carried out as described in (b.). However, in this experiment, blood was drawn on days 0, 3 and 7. Total cholesterol levels and HDL were measured on these blood samples.
smiles,measurement,setting,value
CC(C)CCC[C@@H](C)[C@H]1C[C@H](O)C2=C3C(=O)C[C@H]4C[C@@H](O)CC[C@]4(C)[C@H]3CC[C@@]21C,IC50,[1],1100 nM
CCOC(=O)N1[C@@H]2C[C@H]3C[C@@H](O)CC[C@]3(C)[C@H]3CC[C@@]4(C)C(=C23)[C@H](C[C@@H]4[C@H](C)CCCC(C)C)N1C(=O)OCC,IC50,[1],800 nM
"CC(C)CCC[C@@H](C)[C@H]1Cc2cnc3c4c2[C@]1(C)CC[C@@H]4[C@@]1(C)CC[C@H](O)C[C@@H]1C3 [Compound 15, pyridino 2',3',4',5':7,8,14,15!cholestan-3β-ol]","Cholesterol Levels, HDL","[2]; Day 0, 0.16 mg/rat/day, control 42.2 ± 4.40",39.6 ± 2.06 Mg/100 mL
same,"Cholesterol Levels, Total","[2]; Day 0, 0.16 mg/rat/day, control 95.8 ± 9.79",94.8 ± 5.5 Mg/100 mL
same,"Cholesterol Levels, HDL","[2]; Day 0, 0.33 mg/rat/day, control 42.2 ± 4.40",35.8 ± 1.91 Mg/100 mL
same,"Cholesterol Levels, Total","[2]; Day 0, 0.33 mg/rat/day, control 95.8 ± 9.79",99.0 ± 3.7 Mg/100 mL
same,"Cholesterol Levels, HDL","[2]; Day 0, 1.0 mg/rat/day, control 42.2 ± 4.40",37.8 ± 3.01 Mg/100 mL
same,"Cholesterol Levels, Total","[2]; Day 0, 1.0 mg/rat/day, control 95.8 ± 9.79",88.8 ± 7.78 Mg/100 mL
same,"Cholesterol Levels, HDL","[2]; Day 0, 3.0 mg/rat/day, control 42.2 ± 4.40",35.2 ± 3.14 Mg/100 mL
same,"Cholesterol Levels, Total","[2]; Day 0, 3.0 mg/rat/day, control 95.8 ± 9.79",85.6 ± 6.57 Mg/100 mL
same,"Cholesterol Levels, HDL","[2]; Day 3, 0.16 mg/rat/day, control 41.6 ± 2.62",36.4 ± 1.36 Mg/100 mL
same,"Cholesterol Levels, Total","[2]; Day 3, 0.16 mg/rat/day, control 85.2 ± 2.95",83.6 ± 3.56 Mg/100 mL
same,"Cholesterol Levels, HDL","[2]; Day 3, 0.33 mg/rat/day, control 41.6 ± 2.62",35.8 ± 2.40 Mg/100 mL
same,"Cholesterol Levels, Total","[2]; Day 3, 0.33 mg/rat/day, control 85.2 ± 2.95",75.6 ± 1.94 Mg/100 mL
same,"Cholesterol Levels, HDL","[2]; Day 3, 1.0 mg/rat/day, control 41.6 ± 2.62",34.4 ± 1.69 Mg/100 mL
same,"Cholesterol Levels, Total","[2]; Day 3, 1.0 mg/rat/day, control 85.2 ± 2.95",78.8 ± 2.86 Mg/100 mL
same,"Cholesterol Levels, HDL","[2]; Day 3, 3.0 mg/rat/day, control 41.6 ± 2.62",29.6 ± 0.98 Mg/100 mL
same,"Cholesterol Levels, Total","[2]; Day 3, 3.0 mg/rat/day, control 85.2 ± 2.95",72.2 ± 2.95 Mg/100 mL
same,"Cholesterol Levels, HDL","[2]; Day 7, 0.16 mg/rat/day, control 49.6 ± 4.01",39.8 ± 1.02 Mg/100 mL
same,"Cholesterol Levels, Total","[2]; Day 7, 0.16 mg/rat/day, control 84.8 ± 4.40",69.4 ± 3.66 Mg/100 mL
same,"Cholesterol Levels, HDL","[2]; Day 7, 0.33 mg/rat/day, control 49.6 ± 4.01",36.0 ± 2.55 Mg/100 mL
same,"Cholesterol Levels, Total","[2]; Day 7, 0.33 mg/rat/day, control 84.8 ± 4.40",57.6 ± 2.89 Mg/100 mL
same,"Cholesterol Levels, HDL","[2]; Day 7, 1.0 mg/rat/day, control 49.6 ± 4.01",25.0 ± 1.87 Mg/100 mL
same,"Cholesterol Levels, Total","[2]; Day 7, 1.0 mg/rat/day, control 84.8 ± 4.40",58.0 ± 4.06 Mg/100 mL
same,"Cholesterol Levels, HDL","[2]; Day 7, 3.0 mg/rat/day, control 49.6 ± 4.01",15.4 ± 1.40 Mg/100 mL
same,"Cholesterol Levels, Total","[2]; Day 7, 3.0 mg/rat/day, control 84.8 ± 4.40",46.4 ± 2.23 Mg/100 mL
CC(C)CCC[C@@H](C)[C@H]1Cc2n[n+]([O-])c3c4c2[C@]1(C)CC[C@@H]4[C@@]1(C)CC[C@H](O)C[C@@H]1C3,IC50,[1],< 250 nM
CO[C@@H]1C[C@H]([C@H](C)CCCC(C)C)[C@@]2(C)CC[C@H]3C(=C12)CC[C@H]1C[C@@H](O)CC[C@@]13C,IC50,[1],900 nM
C[C@H](CCCC(C)(C)F)[C@H]1Cc2nnc3c4c2[C@]1(C)CC[C@@H]4[C@@]1(C)CC[C@H](O)C[C@@H]1C3,IC50,[1],160 nM
C[C@H](CCCC(C)(C)O)[C@H]1Cc2nnc3c4c2[C@]1(C)CC[C@@H]4[C@@]1(C)CC[C@H](O)C[C@@H]1C3,IC50,[1],3400 nM
CC(C)CCC[C@@H](C)[C@H]1Cc2cnc3c4c2[C@]1(C)CC[C@@H]4[C@@]1(C)CC[C@H](O)C[C@@H]1C3 [drawing 39],IC50,[1],50 nM
CC(C)CCC[C@@H](C)[C@H]1CC(=O)C2=C3[C@H](F)C[C@H]4C[C@@H](OC(=O)c5ccccc5)CC[C@]4(C)[C@H]3CC[C@@]21C,IC50,[1],200 nM
CC(C)CCC[C@@H](C)[C@H]1C[C@H]2C3=C4[C@@H](C[C@H]5C[C@@H](O)CC[C@]5(C)[C@H]4CC[C@@]31C)N(C)N2C,IC50,[1],1600 nM
CC(C)CCC[C@@H](C)[C@H]1CC(=O)C2=C3[C@H](O)C[C@H]4C[C@@H](O)CC[C@]4(C)[C@H]3CC[C@@]21C,IC50,[1],1600 nM
C[C@H](CCCC(C)(C)O)[C@H]1CC[C@H]2[C@@H]3CC=C4C[C@@H](O)CC[C@]4(C)[C@H]3CC[C@]12C,IC50,[1],350 nM
CC(C)CCC[C@@H](C)[C@H]1C[C@H](O)C2=C3C(=O)C[C@H]4C[C@@H](OC(=O)c5ccccc5)CC[C@]4(C)[C@H]3CC[C@@]21C,IC50,[1],3500 nM
CC(C)CCC[C@@H](C)[C@H]1Cc2nnc3c4c2[C@]1(C)CC[C@@H]4[C@@]1(C)CC[C@H](O)C[C@@H]1C3 [drawing 35],IC50,[1],90 nM
CC(C)[C@@H](C)/C=C/[C@@H](C)[C@H]1Cc2nnc3c4c2[C@]1(C)CC[C@@H]4[C@@]1(C)CC[C@H](O)C[C@@H]1C3,IC50,[1],110 nM
CC(C)CCC[C@@H](C)[C@H]1CC(=O)C2=C3CC[C@H]4C[C@@H](O)CC[C@]4(C)[C@H]3CC[C@@]21C [drawing 26],IC50,[1],1400 nM
CC(C)CCC[C@@H](C)[C@H]1C[C@H]2C3=C4[C@@H](C[C@H]5C[C@@H](O)CC[C@]5(C)[C@H]4CC[C@@]31C)n1c(=O)c3ccccc3c(=O)n12,IC50,[1],2100 nM
CCOC(=O)N1[C@@H]2C[C@H]3C[C@@H](OC(=O)c4ccccc4)CC[C@]3(C)[C@H]3CC[C@@]4(C)C(=C23)[C@H](C[C@@H]4[C@H](C)CCCC(C)C)N1C(=O)OCC,IC50,[1],1300 nM
